From patent publication US11358952B2, “Substituted 4-aminoisoindoline-1,3-dione compounds, compositions thereof, and methods of treatment therewith” (Celgene Corporation, priority 2018, dated 2022)

system: SU-DHL-4 cell line; test: SU-DHL-4 cell proliferation assay (Cell Titer-Glo viability); format: cell-based; details: Homo sapiens; cell viability IC50 activity level, DLBCL cell line SU-DHL-4, 120 hours post-treatment; read-out: SU-DHL-4 Act
Method in brief: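 Viability read by ATP luminescence (Cell Titer-Glo) at the start and after 120 h of growth at 37°C in 5% CO2. DLBCL cells were seeded at 500 per well with compound across 0.5 nM–10 μM in 20 points, 0.1% DMSO. A four-parameter sigmoidal fit gave IC50 as 50% of DMSO control.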

| IC50 [µM] | Compound |
| --- | --- |
| < 0.2 | CC(C)S(=O)(=O)N1CCN(Cc2ccc(CNc3cccc4c3C(=O)N(C3CCC(=O)NC3=O)C4=O)c(F)c2)CC1 (stereo not drawn) [Cpd 175, 2-(2,6-dioxopiperidin-3-yl)-4-(2-fluoro-4-((4-(isopropylsulfonyl)piperazin-1-yl)methyl)benzylamino)isoindoline-1,3-dione] |
| < 0.2 | O=C1CCC(N2C(=O)c3cccc(NCc4ccc(CN5CCN(c6noc7ccccc67)CC5)cc4F)c3C2=O)C(=O)N1 (stereo not drawn) [Cpd 176, 4-(4-((4-(benzo[d]isoxazol-3-yl)piperazin-1-yl)methyl)-2-fluorobenzylamino)-2-(2,6-dioxopiperidin-3-yl)isoindoline-1,3-dione] |
| < 0.2 | O=C1CCC(N2C(=O)c3cccc(NCc4ccc(CN5CCN(c6nnc(C(F)(F)F)s6)CC5)cc4F)c3C2=O)C(=O)N1 (stereo not drawn) [Cpd 177, 2-(2,6-dioxopiperidin-3-yl)-4-(2-fluoro-4-((4-(5-(trifluoromethyl)-1,3,4-thiadiazol-2-yl)piperazin-1-yl)methyl)benzylamino)isoindoline-1,3-dione] |
| 0.2 to 0.5 | Cc1nnc(C2CCN(Cc3ccc(CNc4cccc5c4C(=O)N(C4CCC(=O)NC4=O)C5=O)c(F)c3)CC2)o1 (stereo not drawn) [Cpd 178, 2-(2,6-dioxopiperidin-3-yl)-4-(2-fluoro-4-((4-(5-methyl-1,3,4-oxadiazol-2-yl)piperidin-1-yl)methyl)benzylamino)isoindoline-1,3-dione] |
| 0.751 to 1 | Cc1cc(CNc2cccc3c2C(=O)N(C2CCC(=O)NC2=O)C3=O)ccc1CN1CCN(c2cccnc2C(N)=O)CC1 (stereo not drawn) [Cpd 179, 3-(4-(4-((2-(2,6-dioxopiperidin-3-yl)-1,3-dioxoisoindolin-4-ylamino)methyl)-2-methylbenzyl)piperazin-1-yl)picolinamide] |
| 0.2 to 0.5 | NC(=O)c1ncccc1N1CCN(Cc2ccc(CNc3cccc4c3C(=O)N(C3CCC(=O)NC3=O)C4=O)c(F)c2)CC1 (stereo not drawn) [Cpd 180, 3-(4-(4-((2-(2,6-dioxopiperidin-3-yl)-1,3-dioxoisoindolin-4-ylamino)methyl)-3-fluorobenzyl)piperazin-1-yl)picolinamide] |
| < 0.2 | NC(=O)c1cccc(N2CCN(Cc3ccc(CNc4cccc5c4C(=O)N(C4CCC(=O)NC4=O)C5=O)cc3)CC2)n1 (stereo not drawn) [Cpd 181, 6-(4-(4-((2-(2,6-dioxopiperidin-3-yl)-1,3-dioxoisoindolin-4-ylamino)methyl)benzyl)piperazin-1-yl)picolinamide] |
| < 0.2 | Cc1cc(CNc2cccc3c2C(=O)N(C2CCC(=O)NC2=O)C3=O)ccc1CN1CCN(c2cccc(C(N)=O)n2)CC1 (stereo not drawn) [Cpd 182, 6-(4-(4-((2-(2,6-dioxopiperidin-3-yl)-1,3-dioxoisoindolin-4-ylamino)methyl)-2-methylbenzyl)piperazin-1-yl)picolinamide] |
| < 0.2 | NC(=O)c1cccc(N2CCN(Cc3ccc(CNc4cccc5c4C(=O)N(C4CCC(=O)NC4=O)C5=O)cc3F)CC2)n1 (stereo not drawn) [Cpd 183, 6-(4-(4-((2-(2,6-dioxopiperidin-3-yl)-1,3-dioxoisoindolin-4-ylamino)methyl)-2-fluorobenzyl)piperazin-1-yl)picolinamide] |
| < 0.2 | NC(=O)c1cccc(N2CCN(Cc3ccc(CNc4cccc5c4C(=O)N(C4CCC(=O)NC4=O)C5=O)c(F)c3)CC2)n1 (stereo not drawn) [Cpd 184, 6-(4-(4-((2-(2,6-dioxopiperidin-3-yl)-1,3-dioxoisoindolin-4-ylamino)methyl)-3-fluorobenzyl)piperazin-1-yl)picolinamide] |
| 0.2 to 0.5 | O=C1CCC(N2C(=O)c3cccc(NCc4ccc(CN5CCN(c6cnccn6)CC5)cc4)c3C2=O)C(=O)N1 (stereo not drawn) [Cpd 185, 2-(2,6-dioxopiperidin-3-yl)-4-(4-((4-(pyrazin-2-yl)piperazin-1-yl)methyl)benzylamino)isoindoline-1,3-dione] |
| 0.751 to 1 | Cc1cncc(N2CCN(Cc3ccc(CNc4cccc5c4C(=O)N(C4CCC(=O)NC4=O)C5=O)cc3)CC2)n1 (stereo not drawn) [Cpd 186, 2-(2,6-dioxopiperidin-3-yl)-4-(4-((4-(6-methylpyrazin-2-yl)piperazin-1-yl)methyl)benzylamino)isoindoline-1,3-dione] |
| 0.2 to 0.5 | O=C1CCC(N2C(=O)c3cccc(NCc4ccc(CN5CCN(c6noc7ccccc67)CC5)cc4)c3C2=O)C(=O)N1 (stereo not drawn) [Cpd 187, 4-(4-((4-(benzo[d]isoxazol-3-yl)piperazin-1-yl)methyl)benzylamino)-2-(2,6-dioxopiperidin-3-yl)isoindoline-1,3-dione] |
| 0.751 to 1 | O=C1CCC(N2C(=O)c3cccc(NCc4ccc(CN5CCN(C(=O)c6ccccc6F)CC5)cc4F)c3C2=O)C(=O)N1 (stereo not drawn) [Cpd 188, 2-(2,6-dioxopiperidin-3-yl)-4-(2-fluoro-4-((4-(2-fluorobenzoyl)piperazin-1-yl)methyl)benzylamino)isoindoline-1,3-dione] |
| 0.2 to 0.5 | NC(=O)c1cc(N2CCN(Cc3ccc(CNc4cccc5c4C(=O)N(C4CCC(=O)NC4=O)C5=O)cc3)CC2)ccn1 (stereo not drawn) [Cpd 189, 4-(4-(4-((2-(2,6-dioxopiperidin-3-yl)-1,3-dioxoisoindolin-4-ylamino)methyl)benzyl)piperazin-1-yl)picolinamide] |
| 0.2 to 0.5 | Cc1cc(CNc2cccc3c2C(=O)N(C2CCC(=O)NC2=O)C3=O)ccc1CN1CCN(c2ccnc(C(N)=O)c2)CC1 (stereo not drawn) [Cpd 190, 4-(4-(4-((2-(2,6-dioxopiperidin-3-yl)-1,3-dioxoisoindolin-4-ylamino)methyl)-2-methylbenzyl)piperazin-1-yl)picolinamide] |
| 0.501 to 0.75 | NC(=O)c1cc(N2CCN(Cc3ccc(CNc4cccc5c4C(=O)N(C4CCC(=O)NC4=O)C5=O)cc3F)CC2)ccn1 (stereo not drawn) [Cpd 191, 4-(4-(4-((2-(2,6-dioxopiperidin-3-yl)-1,3-dioxoisoindolin-4-ylamino)methyl)-2-fluorobenzyl)piperazin-1-yl)picolinamide] |
| < 0.2 | NC(=O)c1cc(N2CCN(Cc3ccc(CNc4cccc5c4C(=O)N(C4CCC(=O)NC4=O)C5=O)c(F)c3)CC2)ccn1 (stereo not drawn) [Cpd 192, 4-(4-(4-((2-(2,6-dioxopiperidin-3-yl)-1,3-dioxoisoindolin-4-ylamino)methyl)-3-fluorobenzyl)piperazin-1-yl)picolinamide] |
| 0.2 to 0.5 | Cc1nnc(N2CCN(Cc3ccc(CNc4cccc5c4C(=O)N(C4CCC(=O)NC4=O)C5=O)cc3)CC2)s1 (stereo not drawn) [Cpd 193, 2-(2,6-dioxopiperidin-3-yl)-4-(4-((4-(5-methyl-1,3,4-thiadiazol-2-yl)piperazin-1-yl)methyl)benzylamino)isoindoline-1,3-dione] |
| < 0.2 | Cc1nsc(N2CCN(Cc3ccc(CNc4cccc5c4C(=O)N(C4CCC(=O)NC4=O)C5=O)cc3)CC2)n1 (stereo not drawn) [Cpd 194, 2-(2,6-dioxopiperidin-3-yl)-4-(4-((4-(3-methyl-1,2,4-thiadiazol-5-yl)piperazin-1-yl)methyl)benzylamino)isoindoline-1,3-dione] |
| 0.2 to 0.5 | Cn1cc(N2CCN(Cc3ccc(CNc4cccc5c4C(=O)N(C4CCC(=O)NC4=O)C5=O)cc3)CC2)cn1 (stereo not drawn) [Cpd 195, 2-(2,6-dioxopiperidin-3-yl)-4-(4-((4-(1-methyl-1H-pyrazol-4-yl)piperazin-1-yl)methyl)benzylamino)isoindoline-1,3-dione] |
| < 0.2 | O=C1CCC(N2C(=O)c3cccc(NCc4ccc(CN5CCN(c6ncsn6)CC5)cc4)c3C2=O)C(=O)N1 (stereo not drawn) [Cpd 196, 4-(4-((4-(1,2,4,-thiadiazol-3-yl)piperazin-1-yl)methyl)benzylamino)-2-(2,6-dioxopiperidin-3-yl)isoindoline-1,3-dione] |
| < 0.2 | CCc1nsc(N2CCN(Cc3ccc(CNc4cccc5c4C(=O)N(C4CCC(=O)NC4=O)C5=O)cc3)CC2)n1 (stereo not drawn) [Cpd 197, 2-(2,6-dioxopiperidin-3-yl)-4-(4-((4-(3-ethyl-1,2,4-thiadiazol-5-yl)piperazin-1-yl)methyl)benzylamino)isoindoline-1,3-dione] |
| 0.751 to 1 | CCc1nnc(N2CCN(Cc3ccc(CNc4cccc5c4C(=O)N(C4CCC(=O)NC4=O)C5=O)cc3)CC2)o1 (stereo not drawn) [Cpd 198, 2-(2,6-dioxopiperidin-3-yl)-4-(4-((4-(5-ethyl-1,3,4-oxadiazol-2-yl)piperazin-1-yl)methyl)benzylamino)isoindoline-1,3-dione] |
| < 0.2 | Cc1cc(N2CCN(Cc3ccc(CNc4cccc5c4C(=O)N(C4CCC(=O)NC4=O)C5=O)cc3)CC2)no1 (stereo not drawn) [Cpd 199, 2-(2,6-dioxopiperidin-3-yl)-4-(4-((4-(5-methylisoxazol-3-yl)piperazin-1-yl)methyl)benzylamino)isoindoline-1,3-dione] |
| < 0.2 | Cc1cc(CNc2cccc3c2C(=O)N(C2CCC(=O)NC2=O)C3=O)ccc1CN1CC2(CCCC2)C1 (stereo not drawn) [Cpd 200, 4-(4-(2-azaspiro[3.4]octan-2-ylmethyl)-3-methylbenzylamino)-2-(2,6-dioxopiperidin-3-yl)isoindoline-1,3-dione] |
| < 0.2 | Cc1cc(CNc2cccc3c2C(=O)N(C2CCC(=O)NC2=O)C3=O)ccc1CN1CC(N2CCOCC2)C1 (stereo not drawn) [Cpd 201, 2-(2,6-dioxopiperidin-3-yl)-4-(3-methyl-4-((3-morpholinoazetidin-1-yl)methyl)benzylamino)isoindoline-1,3-dione] |
| < 0.2 | Cc1cc(CNc2cccc3c2C(=O)N(C2CCC(=O)NC2=O)C3=O)ccc1CN1CC(C(C)C)C1 (stereo not drawn) [Cpd 202, 2-(2,6-dioxopiperidin-3-yl)-4-(4-((3-isopropylazetidin-1-yl)methyl)-3-methylbenzylamino)isoindoline-1,3-dione] |
| < 0.2 | NC(=O)c1ccc(N2CCN(Cc3ccc(CNc4cccc5c4C(=O)N([C@H]4CCC(=O)NC4=O)C5=O)cc3)CC2)nc1 [Cpd 203, (S)-6-(4-(4-((2-(2,6-dioxopiperidin-3-yl)-1,3-dioxoisoindolin-4-ylamino)methyl)benzyl)piperazin-1-yl)nicotinamide] |
| < 0.2 | NC(=O)c1ccc(N2CCN(Cc3ccc(CNc4cccc5c4C(=O)N([C@@H]4CCC(=O)NC4=O)C5=O)cc3)CC2)nc1 [Cpd 204, (R)-6-(4-(4-((2-(2,6-dioxopiperidin-3-yl)-1,3-dioxoisoindolin-4-ylamino)methyl)benzyl)piperazin-1-yl)nicotinamide] |
